# PMC8689225, “Cardiac ryanodine receptor N-terminal region biosensors identify novel inhibitors via FRET-based high-throughput screening” (The Journal of Biological Chemistry, 2021)
# Key:
# RyR1 = molecular target: T1, RyR1 (Rattus norvegicus, UniProt F1LMY4); assay: t-tubule Ca2+ measurement of RyR1 leak in skinned skeletal muscle fibers; format: cell-based; details: 10 μM FA or 1 mM tetracaine, [Ca2+]cyto 200 nM
# T1 construct: from tissue; host or cells: Wistar rat extensor digitorum longus (EDL), mechanically skinned single fibres
# Experimental: All experimental methods using rodents were approved by the Animal Ethics Committees at The University of Queensland and were performed in accordance with the relevant guidelines and regulations. Five-month-old Wistar rats (UQ Biological Resources) were euthanized by asphyxiation via CO2 exposure, and the extensor digitorum longus (EDL) was rapidly excised. Once dissected, muscles were pinned to Sylgard set in a Petri dish containing paraffin oil.
# Bundles of fibers were isolated and exposed to an internal solution containing rhod-5N, as described previously ([47]). After 15 min incubation, single skeletal muscle fibers were mechanically skinned and mounted in a custom-made chamber. […] For tracking Ca^2+ movements across the t-system membrane, images were continuously recorded in xyt mode with an aspect ratio of 256 × 512, with the long aspect of the image parallel with that of the preparation. Temporal resolution of imaging in this mode where the fluorescence signal was within the borders of the fiber was 0.8 s.
# T-system rhod-5N fluorescence was converted to [Ca^2+]t-sys as previously described ([47]). To determine the effect of RyR modulators on the RyR Ca^2+ leak, isolated mechanically skinned fibers were continuously imaged as described above, to obtain a record of t-system rhod-5N fluorescence changes over time as the cytoplasmic solution bathing the fiber was changed. […]
# RyR2 = molecular target: T2, RyR2 (Mus musculus, UniProt E9Q401); assay: Ca2+ sparks in saponin-permeabilized ventricular cardiomyocytes; format: cell-based
# T2 construct: endogenous in cells; host or cells: ventricular cardiomyocytes of male C57BL/6J mice, saponin-permeabilized
# Experimental: Mouse ventricular cardiomyocytes were isolated enzymatically from hearts of male C57BL/6J mouse (10–12 weeks old, Jackson Laboratory) as previously described with minor modifications ([66]). Briefly, mice were injected with heparin (500 U/kg body weight) and anesthetized with isoflurane (2 to 5%) to a verified deep surgical plane, whereupon the heart was excised, resulting in euthanasia by exsanguination. Hearts were excised and retrogradely perfused with constant flow on a Langendorff apparatus (37 °C) with Ca^2+-free normal Tyrode’s solution, gassed with 100% O2. Collagenase type II (Worthington Biochemical Co) and protease type XIV (Sigma-Aldrich) were used for enzymatic digestion. Ventricular cardiomyocytes were then mechanically dissociated and filtered through a nylon mesh and allowed to sediment in Tyrode’s solution. The [Ca^2+] of the Tyrode’s solution was then raised to 0.5 mM in stepwise fashion, and cardiomyocytes were kept at room temperature in this solution until use. All animal handling and laboratory procedures were in accordance with the approved protocols of the University of California, Davis Institutional Animal Care and Use Committee conforming to the Guide for the Care and Use of Laboratory Animals published by the US National Institutes of Health (eighth edition, 2011).
# Ca^2+ activity was imaged via confocal microscopy (Bio-Rad, Radiance 2100, 40× objective) in the line scan mode (166 lines/s; ex 488 nm, em >505 nm). Ca^2+ sparks were recorded from ventricular cardiomyocytes permeabilized with saponin (50 μg/ml) for 1 min in internal solution containing (in mM) 10 HEPES, 1 EGTA, 1 free MgCl2 (with free [Ca^2+] adjusted to 50 nM using MaxChelator), 120 K-aspartate, 10 reduced glutathione, 5 ATP, 5 phosphocreatine di-Na, creatine phosphokinase 5 U/ml, and dextran (MW: 40,000) 8% at pH 7.20. Cardiomyocytes were immediately washed with saponin-free internal solution and then superfused with internal solution (50 nM Ca^2+free) containing the Ca^2+-sensitive indicator, Fluo-4 pentapotassium salt (10 μM, Invitrogen). Ca^2+ spark parameters were analyzed over a 10 s period from each line scan recording. Ca^2+ transients and diastolic Ca^2+ release events were recorded from intact ventricular cardiomyocytes loaded for 30 min at room temperature with Fluo-4 AM (10 μM, Invitrogen) and Pluronic F-127 (0.02%, Invitrogen) followed by wash and de-esterification for 30 min in Tyrode’s solution containing (in mM) NaCl 140, KCl 4, CaCl2 1.8, MgCl2 1, HEPES 5, Na-HEPES 5, and glucose 5.5 at pH 7.40. To evoke Ca^2+ transients, intact cardiomyocytes were paced at 1 Hz in a field stimulation chamber (Warner Instruments) at room temperature. Ca^2+ activity was assessed in paired fashion before and after incubating cardiomyocytes with fusidic acid (FA) for 6 min at each concentration. ImageJ was used for image processing and analysis, and Ca^2+ sparks were analyzed using the SparkMaster plugin ([67]). Chemical reagents were purchased from Sigma-Aldrich unless indicated otherwise.
# Statistical analyses were performed using GraphPad Prism 9. Normality was verified using the D’Agostino & Pearson test. Repeated measures (at different FA concentrations) one-way ANOVA with Geisser–Greenhouse correction followed by the Dunnett’s multiple comparison post-hoc test was used for normally distributed data to determine individual differences in matched responses. […]
# T2 sequence (E9Q401 whole entry): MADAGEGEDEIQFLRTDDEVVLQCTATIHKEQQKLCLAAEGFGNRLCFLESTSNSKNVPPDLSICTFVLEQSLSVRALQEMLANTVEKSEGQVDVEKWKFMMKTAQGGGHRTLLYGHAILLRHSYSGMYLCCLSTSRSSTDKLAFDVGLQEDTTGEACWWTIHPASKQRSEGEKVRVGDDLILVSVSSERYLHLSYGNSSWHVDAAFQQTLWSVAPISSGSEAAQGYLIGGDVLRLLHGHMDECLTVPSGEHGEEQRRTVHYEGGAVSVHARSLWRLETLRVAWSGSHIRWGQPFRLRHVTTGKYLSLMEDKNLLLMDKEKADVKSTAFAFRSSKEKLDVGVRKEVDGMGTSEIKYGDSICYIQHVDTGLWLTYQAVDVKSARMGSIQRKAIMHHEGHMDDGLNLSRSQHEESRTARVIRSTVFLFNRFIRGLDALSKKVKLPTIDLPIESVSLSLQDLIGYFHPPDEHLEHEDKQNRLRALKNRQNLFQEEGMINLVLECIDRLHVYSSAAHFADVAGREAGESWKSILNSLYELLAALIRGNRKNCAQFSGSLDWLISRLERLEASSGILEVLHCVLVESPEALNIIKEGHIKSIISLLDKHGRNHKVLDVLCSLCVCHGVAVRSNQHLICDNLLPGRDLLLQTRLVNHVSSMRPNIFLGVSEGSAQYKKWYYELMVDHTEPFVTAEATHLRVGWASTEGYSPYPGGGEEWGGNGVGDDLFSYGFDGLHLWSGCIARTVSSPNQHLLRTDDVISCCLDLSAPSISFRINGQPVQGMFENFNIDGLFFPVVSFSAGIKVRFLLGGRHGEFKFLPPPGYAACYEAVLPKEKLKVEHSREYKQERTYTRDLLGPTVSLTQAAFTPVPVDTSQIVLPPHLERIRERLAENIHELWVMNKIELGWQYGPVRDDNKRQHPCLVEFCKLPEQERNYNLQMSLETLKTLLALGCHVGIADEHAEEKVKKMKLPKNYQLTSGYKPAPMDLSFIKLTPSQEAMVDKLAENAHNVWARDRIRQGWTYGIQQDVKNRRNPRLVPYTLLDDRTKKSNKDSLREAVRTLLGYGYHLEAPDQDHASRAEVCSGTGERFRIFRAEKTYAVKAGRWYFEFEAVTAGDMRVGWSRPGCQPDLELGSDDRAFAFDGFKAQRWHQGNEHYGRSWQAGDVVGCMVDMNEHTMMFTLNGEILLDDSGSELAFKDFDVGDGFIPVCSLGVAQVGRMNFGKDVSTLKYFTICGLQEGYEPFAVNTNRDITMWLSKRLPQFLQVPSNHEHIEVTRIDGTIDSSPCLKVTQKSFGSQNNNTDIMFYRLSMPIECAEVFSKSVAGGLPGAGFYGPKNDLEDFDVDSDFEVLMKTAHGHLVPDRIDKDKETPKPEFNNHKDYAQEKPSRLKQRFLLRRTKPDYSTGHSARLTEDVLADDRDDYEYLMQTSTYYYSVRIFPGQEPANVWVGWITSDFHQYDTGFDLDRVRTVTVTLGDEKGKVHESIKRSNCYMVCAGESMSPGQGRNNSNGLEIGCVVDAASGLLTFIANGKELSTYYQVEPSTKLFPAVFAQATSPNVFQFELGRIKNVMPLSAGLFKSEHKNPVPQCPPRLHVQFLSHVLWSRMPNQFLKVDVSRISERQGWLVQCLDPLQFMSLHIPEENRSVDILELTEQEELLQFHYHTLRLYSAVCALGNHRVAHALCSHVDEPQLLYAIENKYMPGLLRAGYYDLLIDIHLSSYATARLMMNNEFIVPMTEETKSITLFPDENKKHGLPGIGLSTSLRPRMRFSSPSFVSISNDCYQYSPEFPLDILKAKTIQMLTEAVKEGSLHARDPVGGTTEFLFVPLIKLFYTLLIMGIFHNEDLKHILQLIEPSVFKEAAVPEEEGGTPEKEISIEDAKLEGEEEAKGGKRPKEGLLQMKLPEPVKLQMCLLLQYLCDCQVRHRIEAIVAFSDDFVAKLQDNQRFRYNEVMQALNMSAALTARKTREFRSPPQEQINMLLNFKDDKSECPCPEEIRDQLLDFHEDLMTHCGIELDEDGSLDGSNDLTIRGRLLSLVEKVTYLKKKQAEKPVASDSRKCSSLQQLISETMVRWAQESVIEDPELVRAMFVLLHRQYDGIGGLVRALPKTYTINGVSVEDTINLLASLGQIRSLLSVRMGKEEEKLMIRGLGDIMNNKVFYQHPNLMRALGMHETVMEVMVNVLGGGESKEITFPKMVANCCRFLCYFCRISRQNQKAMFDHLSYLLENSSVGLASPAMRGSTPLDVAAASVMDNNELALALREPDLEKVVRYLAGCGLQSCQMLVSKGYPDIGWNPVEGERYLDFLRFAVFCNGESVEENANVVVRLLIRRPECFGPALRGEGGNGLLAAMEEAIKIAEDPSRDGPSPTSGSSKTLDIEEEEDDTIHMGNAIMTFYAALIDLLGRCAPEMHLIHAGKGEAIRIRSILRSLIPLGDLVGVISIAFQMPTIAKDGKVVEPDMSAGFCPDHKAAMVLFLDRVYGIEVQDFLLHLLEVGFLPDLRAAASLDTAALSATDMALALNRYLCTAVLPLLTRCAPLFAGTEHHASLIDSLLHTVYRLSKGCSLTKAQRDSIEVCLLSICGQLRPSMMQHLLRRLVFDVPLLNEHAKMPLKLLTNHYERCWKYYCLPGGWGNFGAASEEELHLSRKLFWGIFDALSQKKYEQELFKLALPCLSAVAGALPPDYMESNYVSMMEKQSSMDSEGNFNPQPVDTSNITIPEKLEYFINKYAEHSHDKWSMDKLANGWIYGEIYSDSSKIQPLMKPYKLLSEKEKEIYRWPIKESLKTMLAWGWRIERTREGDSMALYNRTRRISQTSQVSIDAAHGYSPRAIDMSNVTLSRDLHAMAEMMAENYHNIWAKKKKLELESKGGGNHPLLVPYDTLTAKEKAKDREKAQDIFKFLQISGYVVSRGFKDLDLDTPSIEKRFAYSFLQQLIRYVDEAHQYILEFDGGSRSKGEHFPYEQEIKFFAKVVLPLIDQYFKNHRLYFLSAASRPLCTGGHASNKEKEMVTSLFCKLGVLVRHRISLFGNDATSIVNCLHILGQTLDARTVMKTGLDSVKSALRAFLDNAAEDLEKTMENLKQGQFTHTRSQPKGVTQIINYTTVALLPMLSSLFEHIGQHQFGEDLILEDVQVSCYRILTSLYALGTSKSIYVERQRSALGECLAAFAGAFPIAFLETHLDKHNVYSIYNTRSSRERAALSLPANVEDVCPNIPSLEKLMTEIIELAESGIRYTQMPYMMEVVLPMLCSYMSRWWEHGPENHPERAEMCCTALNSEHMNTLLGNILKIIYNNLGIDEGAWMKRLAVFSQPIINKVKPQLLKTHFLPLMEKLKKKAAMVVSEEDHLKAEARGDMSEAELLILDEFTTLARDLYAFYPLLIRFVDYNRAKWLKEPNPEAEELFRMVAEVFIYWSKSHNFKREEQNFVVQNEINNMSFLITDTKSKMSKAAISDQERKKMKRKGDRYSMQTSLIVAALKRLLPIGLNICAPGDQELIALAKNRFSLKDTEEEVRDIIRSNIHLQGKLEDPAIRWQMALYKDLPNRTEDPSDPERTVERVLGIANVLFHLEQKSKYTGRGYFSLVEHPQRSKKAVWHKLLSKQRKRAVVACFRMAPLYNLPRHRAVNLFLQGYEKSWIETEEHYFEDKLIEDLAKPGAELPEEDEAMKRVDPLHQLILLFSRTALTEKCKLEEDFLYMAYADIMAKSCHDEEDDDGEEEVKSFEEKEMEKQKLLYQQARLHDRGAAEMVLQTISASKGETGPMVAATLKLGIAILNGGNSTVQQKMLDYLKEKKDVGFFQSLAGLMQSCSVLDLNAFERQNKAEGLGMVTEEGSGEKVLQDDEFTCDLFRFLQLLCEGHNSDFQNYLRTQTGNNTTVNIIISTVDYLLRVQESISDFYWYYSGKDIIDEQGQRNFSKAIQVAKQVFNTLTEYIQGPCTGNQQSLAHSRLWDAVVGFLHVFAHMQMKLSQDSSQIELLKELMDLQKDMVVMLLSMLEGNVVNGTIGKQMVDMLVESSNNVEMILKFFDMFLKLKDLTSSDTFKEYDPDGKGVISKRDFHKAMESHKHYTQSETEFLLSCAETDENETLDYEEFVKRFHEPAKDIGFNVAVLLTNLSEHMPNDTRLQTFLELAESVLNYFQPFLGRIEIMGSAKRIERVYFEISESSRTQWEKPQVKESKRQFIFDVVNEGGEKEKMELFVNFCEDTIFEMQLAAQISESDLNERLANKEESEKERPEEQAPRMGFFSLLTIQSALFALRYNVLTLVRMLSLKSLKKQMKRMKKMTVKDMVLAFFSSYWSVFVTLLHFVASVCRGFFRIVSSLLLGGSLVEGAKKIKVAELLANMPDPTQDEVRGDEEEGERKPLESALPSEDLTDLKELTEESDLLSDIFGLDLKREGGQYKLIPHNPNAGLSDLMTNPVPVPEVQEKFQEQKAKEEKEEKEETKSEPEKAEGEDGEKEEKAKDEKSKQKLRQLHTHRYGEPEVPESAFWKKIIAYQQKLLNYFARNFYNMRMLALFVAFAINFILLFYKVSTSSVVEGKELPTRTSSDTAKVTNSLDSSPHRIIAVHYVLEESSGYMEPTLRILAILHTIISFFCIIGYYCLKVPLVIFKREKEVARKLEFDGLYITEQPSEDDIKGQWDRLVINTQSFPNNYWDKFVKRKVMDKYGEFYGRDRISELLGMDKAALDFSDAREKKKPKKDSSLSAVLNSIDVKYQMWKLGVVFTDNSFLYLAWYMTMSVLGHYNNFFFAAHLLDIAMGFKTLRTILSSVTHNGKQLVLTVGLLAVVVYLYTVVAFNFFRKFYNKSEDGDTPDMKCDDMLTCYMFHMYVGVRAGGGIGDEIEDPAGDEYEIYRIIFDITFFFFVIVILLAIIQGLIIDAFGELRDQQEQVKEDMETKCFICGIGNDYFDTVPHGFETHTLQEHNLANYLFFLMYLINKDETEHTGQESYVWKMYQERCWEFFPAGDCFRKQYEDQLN
smiles,measurement,setting,value
"CC(=O)O[C@H]1C[C@@]2(C)[C@@H](C[C@@H](O)[C@H]3[C@@]4(C)CC[C@@H](O)[C@@H](C)[C@@H]4CC[C@@]32C)/C1=C(\CCC=C(C)C)C(=O)O [FA, (2Z)-2-[(3R,4S,5S,8S,9S,10S,11R,13R,14S,16S)-16-acetyloxy-3,11-dihydroxy-4,8,10,14-tetramethyl-2,3,4,5,6,7,9,11,12,13,15,16-dodecahydro-1H-cyclopenta[a]phenanthren-17-ylidene]-6-methylhept-5-enoic acid]",steady-state [Ca2+]t-sys (RyR1 leak),RyR1,decreased
same,Ca2+ spark signal mass relative to 0 nM FA,"RyR2; 1 μM FA, p = 0.011",decreased significantly
same,Ca2+ spark signal mass relative to 0 nM FA,"RyR2; 10 μM FA, p = 0.001",decreased significantly
same,Ca2+ spark frequency over [FA] relative to 0 nM FA,"RyR2; [Ca2+]i 50 nM, 6 min exposures",did not detect significant differences
same,"Ca2+ spark signal mass, meancell slope","RyR2; increasing [FA], p = 0.0007",−0.336 F/F0 × μm × s/log10(μM)
same,"Ca2+ spark frequency, meancell slope","RyR2; increasing [FA], p = 0.115",−0.082 sparks/100 μm/s/log10(μM)
